# Experimental data published in EP1267867B1, “USE OF PROSTANOID EP4 RECEPTOR ANTAGONISTS FOR THE TREATMENT OF HEADACHE AND ASSAYS FOR SUCH ANTAGONISTS” (ASTERAND UK LIMITED, priority 2000, dated 2001).
# Legend:
# [1] = tested on: human cerebral artery rings; test: Prostanoid agonist effects on isolated human cerebral artery rings (organ bath, isometric tension); format: cell-based; details: for effect on human cerebral artery rings contracted with phenylephrine: smaller diameter vessels, phenylephrine (1 µM), GR32191 (1 µM) present to block TP-receptors, Figures 3-5
# Experimental: (§1) Sections of cerebral artery were removed from different regions of preparations of human cerebral vasculature containing an intact circle of Willis. Intact rings of this cerebral artery, 2-3mm in length, were set up under isometric conditions in 10 ml organ baths under an initial tension of 1g. All tissues were maintained at 37°C and gassed constantly with 95% O2 / 5% CO2. Following a 90 min equilibration period all tissues were challenged with phenylephrine (1 µM), to determine tissue viability. Once a stable contraction had been obtained, tissues were exposed to a range of prostanoid receptor agonists, in the absence or presence of receptor antagonists, to determine the functional role of prostanoid receptors in maintaining arterial tone.
# coronary artery = test: Effect of PGE2 on pre-contracted coronary artery rings; format: cell-based, human; details: for relaxation of coronary artery: tone induced with phenylephrine (1-10µM) or endothelin-1, n=3 donors, cicaprost 0.1-1µM
# Experimental: (§2) Rings (2-4mm internal diameter) were prepared from sections of pulmonary or coronary artery (n=3 each). They were mounted in organ baths under isometric conditions, in gassed Krebs solution (containing indomethacin) at 37°C, and 1-1.5g initial tone.
# (§3) After at least 60min equilibration, tone was induced with U-46619 (10-100nM) in pulmonary artery or either phenylephrine (1-10µM) or endothelin-1 (-7M) in coronary artery.
# pulmonary artery = test: Effect of PGE2 on pre-contracted pulmonary artery rings; format: cell-based, human; details: tone induced with U-46619 (10-100nM), n=3 donors; cicaprost 0.1-1µM
# Experimental: as §2, §3
# EP4 receptors = biological target: T1, EP4 receptors (Sus scrofa, UniProt I3LLK4); details: antagonism of PGE2-induced relaxation of piglet saphenous vein through blockade of EP4 receptors; cited from earlier work
# T1 construct: providing a natural source of the receptors, such as piglet saphenous vein; host or cells: piglet saphenous vein rings (tissue, endogenous receptor)
# T1 sequence (I3LLK4 1-489): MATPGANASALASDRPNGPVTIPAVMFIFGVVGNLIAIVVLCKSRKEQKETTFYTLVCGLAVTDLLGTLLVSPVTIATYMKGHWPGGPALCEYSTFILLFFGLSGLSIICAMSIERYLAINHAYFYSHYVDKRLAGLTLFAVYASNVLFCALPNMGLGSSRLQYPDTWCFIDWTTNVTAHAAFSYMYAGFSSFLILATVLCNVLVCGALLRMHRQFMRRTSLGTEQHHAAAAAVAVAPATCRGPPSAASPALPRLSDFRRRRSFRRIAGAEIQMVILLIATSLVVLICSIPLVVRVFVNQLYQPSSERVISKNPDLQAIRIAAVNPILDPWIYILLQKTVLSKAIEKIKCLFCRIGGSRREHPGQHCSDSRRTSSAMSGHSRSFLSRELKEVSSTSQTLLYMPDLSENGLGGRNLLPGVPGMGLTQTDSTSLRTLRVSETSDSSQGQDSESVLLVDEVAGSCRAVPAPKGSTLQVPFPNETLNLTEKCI
# EP1 = biological target: T2, EP1 (Homo sapiens, UniProt P34995); details: cited from earlier work
# T2 sequence (P34995 1-402): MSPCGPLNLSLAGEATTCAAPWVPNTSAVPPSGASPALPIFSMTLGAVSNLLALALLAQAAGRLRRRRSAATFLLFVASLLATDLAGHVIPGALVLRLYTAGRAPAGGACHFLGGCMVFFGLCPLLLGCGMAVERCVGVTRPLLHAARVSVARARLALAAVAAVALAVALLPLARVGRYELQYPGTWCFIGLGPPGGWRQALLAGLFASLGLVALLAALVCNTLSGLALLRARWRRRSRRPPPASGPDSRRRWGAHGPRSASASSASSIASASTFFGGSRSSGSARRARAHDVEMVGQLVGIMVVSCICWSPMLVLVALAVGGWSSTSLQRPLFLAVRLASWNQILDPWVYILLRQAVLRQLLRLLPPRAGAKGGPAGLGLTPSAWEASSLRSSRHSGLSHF
# EP3 = biological target: T3, EP3 (Homo sapiens, UniProt P43115); details: cited from earlier work
# T3 sequence (P43115 1-390): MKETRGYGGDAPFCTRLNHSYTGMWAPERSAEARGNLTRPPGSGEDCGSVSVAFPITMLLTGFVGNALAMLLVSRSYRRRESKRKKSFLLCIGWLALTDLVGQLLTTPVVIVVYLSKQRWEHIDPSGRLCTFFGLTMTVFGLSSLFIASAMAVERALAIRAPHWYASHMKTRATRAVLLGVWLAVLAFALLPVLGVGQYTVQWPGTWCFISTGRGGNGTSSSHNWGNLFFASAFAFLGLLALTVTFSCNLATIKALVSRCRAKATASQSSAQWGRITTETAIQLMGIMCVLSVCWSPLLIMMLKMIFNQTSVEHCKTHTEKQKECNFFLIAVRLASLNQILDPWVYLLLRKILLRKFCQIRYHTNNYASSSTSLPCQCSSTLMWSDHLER
# EP2 = EP2 (Homo sapiens, UniProt P43116); details: cited from earlier work
# Sequence of EP2 (P43116 whole entry): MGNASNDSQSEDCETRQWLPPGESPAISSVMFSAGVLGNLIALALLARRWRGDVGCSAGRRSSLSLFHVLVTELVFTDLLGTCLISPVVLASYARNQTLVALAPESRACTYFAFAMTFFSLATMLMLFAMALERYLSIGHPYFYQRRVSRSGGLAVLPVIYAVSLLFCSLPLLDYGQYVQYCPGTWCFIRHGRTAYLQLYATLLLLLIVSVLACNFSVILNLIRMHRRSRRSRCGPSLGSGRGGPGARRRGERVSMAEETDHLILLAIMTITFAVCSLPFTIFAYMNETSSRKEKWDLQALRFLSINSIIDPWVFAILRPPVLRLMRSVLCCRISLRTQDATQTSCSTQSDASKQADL
# EP4 receptor = biological target: T4, EP4 receptor (Homo sapiens, UniProt P35408); test: Antagonism of PGE2-mediated relaxation of phenylephrine pre-contracted middle cerebral artery rings; format: cell-based; details: 10 mM AH23848, 45 mins preincubation, P=0.004, 2 tailed T-Test
# T4 construct: Intact rings of this cerebral artery, 2-3mm in length, were set up under isometric conditions; from tissue; host or cells: human middle cerebral artery rings (one donor)
# T4 sequence (P35408 whole entry): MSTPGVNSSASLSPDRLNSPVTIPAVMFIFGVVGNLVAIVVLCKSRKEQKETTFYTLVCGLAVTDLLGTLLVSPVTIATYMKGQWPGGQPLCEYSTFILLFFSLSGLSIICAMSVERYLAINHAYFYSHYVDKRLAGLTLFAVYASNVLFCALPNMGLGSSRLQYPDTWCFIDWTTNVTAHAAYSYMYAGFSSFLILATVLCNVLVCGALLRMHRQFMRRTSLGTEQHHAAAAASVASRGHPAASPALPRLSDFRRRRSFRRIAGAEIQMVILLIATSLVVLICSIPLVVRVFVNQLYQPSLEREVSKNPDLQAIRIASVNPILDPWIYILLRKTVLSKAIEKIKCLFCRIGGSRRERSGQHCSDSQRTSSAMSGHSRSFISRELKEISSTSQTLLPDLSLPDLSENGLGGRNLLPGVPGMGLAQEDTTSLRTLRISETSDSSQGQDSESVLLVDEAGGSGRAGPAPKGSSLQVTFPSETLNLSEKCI
# Experimental: as §1
# To test the effect of the EP4 receptor antagonist AH23848, cerebral rings were preincubated for 45 mins with 10 mM AH23848.
smiles,measurement,setting,value
CCC#CC[C@H](C)[C@H](O)C#C[C@@H]1[C@H]2C/C(=C/COCC(=O)O)C[C@H]2C[C@H]1O [cicaprost],effect on human cerebral artery rings contracted with phenylephrine,[1],induced relaxation
same,relaxation of coronary artery,coronary artery,induced a relaxation in all preparations
same,relaxation of pulmonary artery,pulmonary artery,induced a relaxation in all preparations
O=C(O)CCC=CCCC1C(OCc2ccc(-c3ccccc3)cc2)CC(=O)C1N1CCOCC1 (centres unmarked) [AH23848],pA2,EP4 receptors,5.4
same,effect on EP receptor subtype EP1,EP1,no effect
same,effect on EP receptor subtype EP3,EP3,no effect
same,effect on EP receptor subtype EP2,EP2,no effect
same,shift in the PGE2-mediated relaxation,EP4 receptor,significant rightward shift
CCCCC[C@H](O)/C=C/[C@H]1C(=O)C[C@H](O)[C@@H]1C/C=C\CCCC(=O)O [PGD2],effect on human cerebral artery rings contracted with phenylephrine,[1],without effect
"CCCCC[C@H](O)/C=C/[C@H]1[C@H](O)CC(=O)[C@@H]1C/C=C\CCCC(=O)O [PGE2, prostaglandin E2]",relaxation of cerebral artery rings pre-contracted with 5-HT,"[1]; 5-HT (300nM and 1µM), Figure 2B, 2C",maximal or near maximal relaxation
same,relaxation of cerebral artery rings pre-contracted with U46619,"[1]; U46619 (100nM), Figure 2A",maximal or near maximal relaxation
same,concentration at which maximum relaxation occurs,"[1]; cerebral blood vessel pre-contracted with phenylephrine, Figure 1",below 10^-6 M
same,effect on larger vessels,"[1]; human cerebral artery, internal diameter > 1mm",concentration-related contraction
same,effect on smaller vessels,"[1]; pre-contracted human cerebral blood vessels, internal diameter < 1mm",potent concentration-related relaxation
same,contraction of coronary artery,"coronary artery; pre-contracted coronary artery, likely due to activation of EP3 receptors",A small contraction
same,relaxation of coronary artery,coronary artery,did not cause relaxation
same,relaxation of pulmonary artery,pulmonary artery,did not cause relaxation
CCCCC[C@H](O)/C=C/[C@@H]1[C@@H](C/C=C\CCCC(=O)O)[C@@H](O)C[C@H]1O [PGF2α],effect on human cerebral artery rings contracted with phenylephrine,[1],without effect
CC#CCC(C)[C@H](O)/C=C/[C@@H]1[C@H]2C/C(=C/CCCC(=O)O)C[C@H]2C[C@H]1O (some centres unmarked) [Iloprost],effect on human cerebral artery rings contracted with phenylephrine,[1],induced relaxation
O=C(O)CCC/C=C\C[C@H]1[C@@H](OCc2ccc(-c3ccccc3)cc2)CC(=O)[C@@H]1N1CCOCC1 [AH22921],pA2,EP4 receptors,5.3
same,effect on EP receptor subtype EP1,EP1,no effect
same,effect on EP receptor subtype EP3,EP3,no effect
same,effect on EP receptor subtype EP2,EP2,no effect
